Experimental data reported in patent US11648289B2, “Antibacterial method” (priority 2016, dated 2023).
No end group written: not given here.

Legend:
[1] = test system: S. pneumoniae ms3; conditions: ms3, rseP H22>A, induced with ComS (2 μM)
Description: (§1) Bacterial strains, growth conditions, bacteriocins and antimicrobial assays. All the strains (see below) used in minimal inhibitory concentration (MIC) assays (Varahan et al., 2014, M. Bio. 5:e01726-01714) were grown in BHI medium (Oxoid) at 30° C. without shaking. A collection of E. faecium strains isolated from blood in patients from different European hospitals was received from Department of Medical Microbiology, University Medical Center Utrecht, the Netherlands. […] Synthesized peptides were solubilized to concentrations of 10.0-0.1 mg/ml in 0.1% (vol/vol) trifluoroacetic acid and stored at −20° C. until use. […] Bacteriocin activity was determined by microtiter plate assay as previously described (Holo et al., 1991, J. Bacteriol., 173:3879-3887). The MIC was defined as the minimal bacteriocin concentration that inhibited the growth of the indicator strain by at least 50% (50% of the turbidity of the control culture without bacteriocin) in 200 μl culture. CD Spectroscopy Circular dichroism (CD) spectra were recorded using a Jasco J-810 spectropolarimeter (Jasco International Co) calibrated with D-camphor-10-sulfonate (Icatayama Chemical). All measurements were made using a quartz cuvette (Sterna) with 0.1 cm path length. Samples were scanned five times with a scanning rate of 50 nm/min with a bandwidth of 0.5 nm and response time of 1 s over the wavelength range 190-250 nm. Spectra were recorded at different (30 and 50%) trifluoroethanol (TFE) (Aldridge) concentrations at 25° C. The approximate α-helical content of the protein was estimated from its molar ellipticity at 222 nm (Scholtz et al., 1991, Biopolymers 31:1463-1470). NMR Spectroscopy The experiments were run on a sample containing 1.0 mM EntK1, 50% D3-TFE (99.5% D) (Aldrich), Milli-Q water and 0.2 mM of 4,4-dimethyl-4-silapentane-1-sulfonic acid (DSS) (Larodan). 2D NOESY (Jeener et al., 1979, J. Magn. Reson., 71:4546-4553), 2D TOCSY (Braunschweiler and Ernst, 1983, J. Magn. Reson., 53:521-528), 2D DQCOSY, ^15N-HSQC (Davis et al., 1992, J. Magn. Reson., 98:207-216) and ^13C-HSQC (Hurd, 1991, J. Magn. Reson., 91:648-653) were recorded. The data was acquired on a 600 MHz Bruker Avance II spectrometer with four channels and a 5 mm TCI cryoprobe (Bruker Biospin). NOESY spectra with mixing times between 120 ms and 300 ms were obtained for both samples. TOCSY mixing times of 15-80 ms were used. The experiments were run at 298.15 K. Spectra were processed using the Topspin program (Bruker Biospin). 4,4-dimethyl-4-silapentane-1-sulfonic acid (DSS) was used as a chemical shift standard, and ^15N and ^13C data were referenced using frequency ratios as described in (Wishart et al., 1995, J. Biomol. NMR., 6:135-140). For visualization, assignment and integration of the spectra the computer program CARA was used (Keller, 2004, The Computer Aided Resonance Assignment Tutorial. CANTINA Verlag, Goldau, Switzerland). The spectra were assigned using standard methods. Dihedral angle restraints were obtained from the chemical shift values using the program TALOS-N(Shen and Bax, 2013, J. Biomol. NMR, 56:227-241). Nuclear Overhauser effect (NOE) distance restraints were calculated from the peak volumes in the NOESY spectra with NOESY mixing time of 200 ms. All structure calculations were made using the structure calculation program CYANA 2.1 (Guntert et al., 1997, J. Mol. Biol., 273:283-298; Herrmann et al., 2002, J. Mol. Biol., 319:209-227). The annealing macro in CYANA calculated 100 structures. The 20 structures with the lowest energy were kept and analyzed further. The root-mean-square deviation (RMSD) was calculated and the structures were visualized using MolMol (Koradi et al., 1996, J. Mol. Graph., 14:51-55, 29-32). Generation of bacteriocin resistant mutants of E. faecalis and E. faecium.

[2] = test system: S. pneumoniae ms4; conditions: ms4, rseP Y24>A, induced with ComS (2 μM)
Description: as §1

[3] = test system: Lactococcus garvieae LMGT 1546
Description: as §1

[4] = test system: L. lactis IL1403
Description: as §1

[5] = test system: B. cercus LMGT 2711
Description: as §1

[6] = test system: L. garvieae LMGT 2217
Description: as §1

[7] = test system: Bacillus cereus LMGT 2805
Description: as §1

[8] = test system: E. hirae LMGT 3236
Description: as §1

[9] = test system: L. lactis LMGT 2233
Description: as §1

[10] = test system: S. aureus LMGT 3260
Description: as §1

[11] = test system: E. faecalis LMGT 3571
Description: as §1

[12] = test system: S. aureus LMGT 3289
Description: as §1

[13] = test system: S. pneumoniae ms2; conditions: ms2, rseP E19>A, induced with ComS (2 μM)
Description: as §1

[14] = test system: L. lactis LMGT 2095
Description: as §1

[15] = test system: S. pneumoniae ds220 induced; conditions: ds220 induced with ComS (2 μM), WT rseP
Description: as §1

[16] = test system: E. faecalis LMGT 3358
Description: as §1

[17] = test system: E. faecium LMGT 2769
Description: as §1

[18] = test system: E. faecium LMGT 3110
Description: as §1

[19] = test system: Listeria monocytogenes LMGT 2651
Description: as §1

[20] = test system: S. pneumoniae ms1; conditions: ms1, rseP H18>A, induced with ComS (2 μM)
Description: as §1

[21] = test system: S. epidermidis LMGT 3026
Description: as §1

Sequence: MKTILRFVAGYDIASHKKKTGGYPWERGKA [LsbB, reference compound]
- MIC [1]: >7 µM
- MIC [2]: >7 µM
- MIC 50 [3]: >7 µM
- MIC 50 [4]: 0.0005 µM
- times more potent than EntEJ97 [4]: ~70 times
- times more potent than EntK1 [4]: about 340 times
- MIC 50 [5]: >7 µM
- MIC 50 [6]: >7 µM
- MIC 50 [7]: >7 µM
- MIC 50 [8]: >7 µM
- MIC 50 [9]: >7 µM
- MIC 50 [10]: >7 µM
- MIC 50 [11]: >7 µM
- MIC 50 [12]: >7 µM
- MIC [13]: >7 µM
- MIC 50 [14]: >7 µM
- MIC [15]: >7 µM
- MIC 50 [16]: >7 µM
- MIC 50 [17]: >7 µM
- MIC 50 [18]: >7 µM
- MIC 50 [19]: >7 µM
- MIC [20]: >7 µM
- MIC 50 [21]: >7 µM

Sequence: MKFKFNPTGTIVKKLTQYEIAWFKNKHGYYPWEIPRC [EntK1]
- MIC [1]: >5.5 µM
- MIC [2]: 0.7 µM
- MIC 50 [3]: 1.37 µM
- MIC 50 [4]: 0.17 µM
- MIC 50 [5]: 2.75 µM
- MIC 50 [6]: 0.34 µM
- MIC 50 [7]: >5.5 µM
- MIC 50 [8]: 0.045 µM
- MIC 50 [9]: >5.5 µM
- MIC 50 [10]: >5.5 µM
- MIC 50 [11]: >5.5 µM
- MIC 50 [12]: >5.5 µM
- MIC [13]: >5.5 µM
- MIC 50 [14]: >5.5 µM
- MIC [15]: 0.7 µM
- MIC 50 [16]: 2.7 µM
- MIC 50 [17]: 0.045 µM
- MIC 50 [18]: 0.045 µM
- MIC 50 [19]: >5.5 µM
- MIC [20]: >5.5 µM
- MIC 50 [21]: >5.5 µM

Sequence: MLAKIKAMIKKFPNPYTLAAKLTTYEINWYKQQYGRYPWERPVA [EntEJ97]
- MIC [1]: 0.3 µM
- MIC [2]: 0.018 µM
- MIC 50 [3]: 0.295 µM
- MIC 50 [4]: 0.037 µM
- MIC 50 [5]: >4.7 µM
- MIC 50 [6]: 0.295 µM
- MIC 50 [7]: >4.7 µM
- MIC 50 [8]: 0.075 µM
- MIC 50 [9]: 0.145 µM
- MIC 50 [10]: 2.3 µM
- MIC 50 [11]: 0.295 µM
- MIC 50 [12]: >4.7 µM
- MIC [13]: 0.3 µM
- MIC 50 [14]: 0.145 µM
- MIC [15]: 0.018 µM
- MIC 50 [16]: 0.075 µM
- MIC 50 [17]: 0.145 µM
- MIC 50 [18]: 0.295 µM
- MIC 50 [19]: 2.3 µM
- MIC [20]: 0.3 µM
- MIC 50 [21]: >4.7 µM
